Like-named read-outs stand apart in the source and are kept apart here.
Key:
GM-CSF = conditions: IL1β 10 ng/ml, 24 hours, no serum
Description: (§1) A clonal derivative of ATCC-certified normal chondrocytes was used for a study to determine cytokine expression. The parent line was originally derived from costal cartilage of adolescent […]. The cell line used is C-28/I2 accession number CVCL 0187. The cells were immortalized via retroviral vector-mediated SV40 Large T antigen expression. Cells were confirmed negative for mycoplasma contamination and genotyped by STR analysis to verify cell identity. This cell line is widely used as a model for studying normal and pathological cartilage repair mechanisms and inflammation.
(§2) The cells were cultured at 37° C. with 5% CO2, DMEM/F12 media supplemented with 10% heat-inactivated fetal bovine serum. Antimicrobials were not added to the media. Cells were maintained between 40 and 80% confluency to avoid terminal differentiation. Cells used for the experiments had been passaged no more than ten times prior to each experiment.

chondrocytes (C-28/I2) = test: toxicity screen, maximum tolerable concentration in chondrocytes
Description: as §1, §2
A series of pilot studies were performed to design the final full-scale experiment. First, a toxicity screen for each test compound was performed to establishment maximum tolerable concentrations in this model system. Second, assays were run to establish the optimal means of inducing a pro-inflammatory state in the cell culture system. Third, conditions were tested to set the most favorable dilution scheme in order to maintain samples within the linear range of detection for each analyte. To establish the test concentrations for each test compound, chondrocytes were treated with a serial dilution of each compound, for 24 and 48 hours under serum free conditions. Oleocanthal or CBD were tested at two-fold dilutions down from 50 micromolar (μM).

[1] = High level (CBD 6.00 μM, niacin 900 μM), FIG. 1, 2C
[2] = Moderate level (CBD 2.00 μM, niacin 300 μM), FIG. 1, 2B
[3] = 24 hours post-treatment, serum free, chondrocytes, microscopy (vacuolation, blebbing, reduced cell count), unit not given

Row | Structure (SMILES) | effect on GM-CSF expression (GM-CSF; [1]) | effect on GM-CSF expression (GM-CSF; [2]) | maximum tolerable concentration (chondrocytes (C-28/I2); [3]) | maximum tolerable concentration (chondrocytes (C-28/I2); human, 24 h)
1 | C=C(C)[C@@H]1CCC(C)=C[C@H]1c1c(O)cc(CCCCC)cc1O [CBD, cannabidiol] | This effect was not seen | This effect was not seen | 604 | –
2 | O=C(O)c1cccnc1 [niacin, nicotinic acid] | This effect was not seen | This effect was not seen | – | 1 mM
3 | C/C=C(/C=O)[C@@H](CC=O)CC(=O)OCCc1ccc(O)cc1 [oleocanthal] | – | – | 604 | –

Source: patent publication US20220409601A1, “COMBINATION CANNABINOID-NAD+ PRECURSOR FORMULATION FOR TREATMENT OF INFLAMMATION AND METHODS RELATED THERETO” (priority 2019, published 2022)
